The NIST ThermoML archive (doi:10.1016/j.tca.2016.04.013)

Experiments:
[1] = 101.33 kPa, Crystal, relaxation calorimetry
[2] = molar heat capacity at constant pressure; conditions: 101.33 kPa, Crystal, relaxation calorimetry

Oc1ncc(Cl)c(O)n1 [5-chloro-2,4-pyrimidinedione]
Conditions | molar entropy, [1] [J/K/mol] | molar heat capacity at constant pressure, [2] [J/K/mol]
0.5 K | 0.000378 | 0.000485
1 K | 0.00108 | 0.00194
2 K | 0.00473 | 0.0116
2.04 K | – | 0.0119
2.26 K | – | 0.0165
2.51 K | – | 0.0224
2.79 K | – | 0.0297
3 K | 0.0135 | 0.0367
3.1 K | – | 0.0407
3.44 K | – | 0.0549
3.82 K | – | 0.0739
4 K | 0.0301 | 0.085
4.24 K | – | 0.101
4.71 K | – | 0.138
5 K | 0.0569 | 0.164
5.24 K | – | 0.188
5.81 K | – | 0.257
6 K | 0.0966 | 0.282
6.44 K | – | 0.35
7 K | 0.152 | 0.446
7.17 K | – | 0.479
7.91 K | – | 0.649
8 K | 0.225 | 0.665
8.78 K | – | 0.878
9 K | 0.319 | 0.945
9.74 K | – | 1.19
10 K | 0.435 | 1.28
10.81 K | – | 1.59
11.99 K | – | 2.14
13.31 K | – | 2.79
14.74 K | – | 3.64
15 K | 1.39 | 3.81
16.35 K | – | 4.68
18.13 K | – | 6.06
20 K | 2.96 | 7.44
20.12 K | – | 7.49
22.32 K | – | 9.36
24.77 K | – | 11.49
25 K | 5.07 | 11.69
27.49 K | – | 13.93
30 K | 7.59 | 16.14
30.5 K | – | 16.6
33.86 K | – | 19.52
35 K | 10.42 | 20.57
37.57 K | – | 22.81
40 K | 13.44 | 24.87
41.69 K | – | 26.3
45 K | 16.61 | 28.97
46.26 K | – | 29.88
50 K | 19.87 | 32.81
51.34 K | – | 34.08
56.96 K | – | 37.64
60 K | 26.48 | 39.81
63.23 K | – | 41.77
70 K | 33.09 | 45.98
70.19 K | – | 45.99
77.89 K | – | 50.5
80 K | 39.6 | 51.52
86.44 K | – | 54.98
90 K | 45.96 | 56.6
95.96 K | – | 59.39
100 K | 52.17 | 61.33
106.02 K | – | 64.02
110 K | 58.23 | 65.83
116.12 K | – | 68.52
120 K | 64.15 | 70.16
126.18 K | – | 72.83
130 K | 69.93 | 74.35
136.3 K | – | 76.98
140 K | 75.59 | 78.45
146.41 K | – | 80.91
150 K | 81.14 | 82.47
156.52 K | – | 84.91
160 K | 86.59 | 86.42
166.6 K | – | 89.11
170 K | 91.94 | 90.33
176.69 K | – | 92.91
180 K | 97.22 | 94.19
186.77 K | – | 96.98
190 K | 102.41 | 98.02
196.85 K | – | 100.43
200 K | 107.53 | 101.81
206.94 K | – | 104.46
210 K | 112.59 | 105.58
217.03 K | – | 107.97
220 K | 117.59 | 109.32
227.26 K | – | 112.17
230 K | 122.53 | 113.04
234.67 K | – | 114.85
240 K | 127.42 | 116.74
244.74 K | – | 118.78
250 K | 132.26 | 120.42
254.84 K | – | 122.35
260 K | 137.06 | 124.08
264.91 K | – | 125.73
270 K | 141.81 | 127.73
273.15 K | 143.3 | 128.88
275 K | – | 129.5
280 K | 146.52 | 131.37
285.08 K | – | 132.72
290 K | 151.19 | 135
295.37 K | – | 136.73
298.15 K | 154.97 | 137.95
300 K | 155.83 | 138.62
302.71 K | – | 140.1

O=c1cc(Cl)[nH]c(=O)[nH]1 [6-chlorouracil]
Conditions | molar entropy, [1] [J/K/mol] | molar heat capacity at constant pressure, [2] [J/K/mol]
0.5 K | 0.00109 | 0.00126
1 K | 0.00269 | 0.00405
1.93 K | – | 0.0182
2 K | 0.00944 | 0.0203
2.15 K | – | 0.0242
2.38 K | – | 0.0322
2.65 K | – | 0.043
2.95 K | – | 0.0584
3 K | 0.0242 | 0.0602
3.27 K | – | 0.0782
3.63 K | – | 0.103
4 K | 0.0508 | 0.135
4.04 K | – | 0.139
4.48 K | – | 0.186
4.98 K | – | 0.247
5 K | 0.0926 | 0.252
5.52 K | – | 0.332
6 K | 0.152 | 0.415
6.12 K | – | 0.436
6.79 K | – | 0.58
7 K | 0.232 | 0.631
7.53 K | – | 0.771
8 K | 0.333 | 0.908
8.35 K | – | 1.02
9 K | 0.459 | 1.25
9.26 K | – | 1.35
10 K | 0.612 | 1.66
10.25 K | – | 1.77
11.34 K | – | 2.31
12.58 K | – | 3.02
13.97 K | – | 3.91
15 K | 1.8 | 4.63
15.49 K | – | 4.99
17.19 K | – | 6.32
19.09 K | – | 7.91
20 K | 3.67 | 8.68
21.19 K | – | 9.7
23.51 K | – | 11.78
25 K | 6.08 | 13.17
26.09 K | – | 14.1
28.91 K | – | 16.74
30 K | 8.88 | 17.67
32.12 K | – | 19.59
35 K | 11.94 | 22.04
35.65 K | – | 22.58
39.54 K | – | 25.93
40 K | 15.15 | 26.22
43.88 K | – | 29.29
45 K | 18.47 | 30.18
48.68 K | – | 32.81
50 K | 21.85 | 33.87
54.02 K | – | 36.6
59.94 K | – | 40.61
60 K | 28.63 | 40.68
66.52 K | – | 44.81
70 K | 35.37 | 46.77
73.83 K | – | 48.95
80 K | 41.97 | 52.2
81.96 K | – | 53.22
90 K | 48.41 | 57.15
90.91 K | – | 57.53
100 K | 54.67 | 61.75
100.89 K | – | 61.78
110 K | 60.76 | 66.1
111.04 K | – | 66.68
120 K | 66.7 | 70.26
121.13 K | – | 70.82
130 K | 72.48 | 74.29
131.15 K | – | 74.92
140 K | 78.13 | 78.22
141.29 K | – | 78.76
150 K | 83.66 | 82.08
151.38 K | – | 82.6
160 K | 89.08 | 85.89
161.47 K | – | 86.43
170 K | 94.4 | 89.66
171.56 K | – | 90.19
180 K | 99.63 | 93.41
181.61 K | – | 94.08
190 K | 104.78 | 97.14
191.69 K | – | 97.83
200 K | 109.85 | 100.85
201.81 K | – | 101.23
210 K | 114.86 | 104.56
211.89 K | – | 105.16
220 K | 119.81 | 108.26
222 K | – | 108.99
230 K | 124.71 | 111.96
232.08 K | – | 112.88
240 K | 129.55 | 115.64
242.1 K | – | 116.48
250 K | 134.35 | 119.33
252.19 K | – | 120.07
260 K | 139.1 | 123
262.33 K | – | 123.73
270 K | 143.81 | 126.67
272.41 K | – | 127.71
273.15 K | 145.28 | 127.82
280 K | 148.48 | 130.33
282.41 K | – | 131.41
290 K | 153.12 | 133.98
292.56 K | – | 134.98
298.15 K | 156.87 | 136.94
300 K | 157.72 | 137.62
302.57 K | – | 138.3
